Results taken from article PMC5207038 (ACS chemical biology, 2016).
“Also recorded” adds a separate entry of the source.

Assays:
[1] = molecular target: T1, hA1AR (Homo sapiens, UniProt P30542); assay: Radioligand binding at human A1AR, membranes of CHO cells; details: for % inhibition at 30 µM A1AR: radioligand displacement at 30 µM, bases; for inhibition at 30 µM: read-out: % inhibition at 30 µM A1AR; for inhibition at 10 µM: read-out: % inhibition at 10 µM A1AR
T1 sequence (P30542 1-326): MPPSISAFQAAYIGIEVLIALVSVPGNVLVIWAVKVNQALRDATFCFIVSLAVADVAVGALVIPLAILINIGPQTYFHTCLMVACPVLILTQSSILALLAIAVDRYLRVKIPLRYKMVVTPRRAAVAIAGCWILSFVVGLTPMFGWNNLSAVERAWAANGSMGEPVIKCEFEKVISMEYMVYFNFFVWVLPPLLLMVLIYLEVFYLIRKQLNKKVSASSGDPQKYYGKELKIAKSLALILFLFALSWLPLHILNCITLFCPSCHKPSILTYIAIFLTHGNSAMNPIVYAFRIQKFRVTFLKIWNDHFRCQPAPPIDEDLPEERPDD

[2] = molecular target: hA2AAR (Homo sapiens, UniProt P29274); assay: Radioligand binding at human A2AAR, membranes of HEK293 cells; details: for % inhibition at 30 µM A2AAR: radioligand displacement at 30 µM, bases; for inhibition at 30 µM: read-out: % inhibition at 30 µM A2AAR; for inhibition at 10 µM: read-out: % inhibition at 10 µM A2AAR
hA2AAR, sequence (P29274 whole entry): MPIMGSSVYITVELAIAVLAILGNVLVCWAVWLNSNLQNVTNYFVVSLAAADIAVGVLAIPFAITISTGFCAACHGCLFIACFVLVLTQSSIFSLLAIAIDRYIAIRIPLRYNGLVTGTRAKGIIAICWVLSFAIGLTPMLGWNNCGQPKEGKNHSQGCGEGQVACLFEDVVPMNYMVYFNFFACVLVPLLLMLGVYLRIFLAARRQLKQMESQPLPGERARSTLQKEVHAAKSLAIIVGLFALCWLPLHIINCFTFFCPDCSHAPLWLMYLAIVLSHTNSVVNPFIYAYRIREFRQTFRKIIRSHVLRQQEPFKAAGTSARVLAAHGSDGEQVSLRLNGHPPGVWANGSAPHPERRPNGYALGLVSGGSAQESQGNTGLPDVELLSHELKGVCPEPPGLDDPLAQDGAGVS

[3] = molecular target: T2, hA3AR (Homo sapiens, UniProt P0DMS8); assay: Radioligand binding at human A3AR, membranes of CHO cells; details: for % inhibition at 30 µM A3AR: radioligand displacement at 30 µM, bases; for inhibition at 30 µM: read-out: % inhibition at 30 µM A3AR
T2 sequence (P0DMS8 1-318): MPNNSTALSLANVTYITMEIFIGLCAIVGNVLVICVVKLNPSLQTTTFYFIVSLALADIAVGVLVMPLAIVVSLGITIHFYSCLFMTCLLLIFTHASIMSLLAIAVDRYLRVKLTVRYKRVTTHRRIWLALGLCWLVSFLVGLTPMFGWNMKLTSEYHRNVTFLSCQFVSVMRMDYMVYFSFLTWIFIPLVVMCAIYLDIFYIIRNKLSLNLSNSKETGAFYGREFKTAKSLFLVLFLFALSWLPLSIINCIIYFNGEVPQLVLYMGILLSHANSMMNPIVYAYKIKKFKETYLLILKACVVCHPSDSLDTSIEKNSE

[4] = molecular target: T3, A3AR (Homo sapiens, UniProt P0DMS8)
T3 sequence (P0DMS8 1-318): T2 sequence (P0DMS8 1-318)

[5] = molecular target: T4, A2BAR (Homo sapiens, UniProt P29275); assay: Functional assay for the A2BAR in CHO cells; assay type: cell-based; details: for functional activity at A2BAR: inactive refers to 10 µM
T4 sequence (P29275 1-332): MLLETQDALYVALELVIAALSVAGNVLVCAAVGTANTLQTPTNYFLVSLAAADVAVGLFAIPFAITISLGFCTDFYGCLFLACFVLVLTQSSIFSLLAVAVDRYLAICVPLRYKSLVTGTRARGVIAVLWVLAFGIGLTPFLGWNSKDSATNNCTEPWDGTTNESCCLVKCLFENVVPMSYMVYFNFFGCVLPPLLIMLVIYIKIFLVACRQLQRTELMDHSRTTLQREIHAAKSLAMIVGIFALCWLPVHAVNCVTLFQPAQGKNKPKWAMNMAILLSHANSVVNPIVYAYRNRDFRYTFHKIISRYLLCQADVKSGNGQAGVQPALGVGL

[6] = molecular target: T5, A1AR (Homo sapiens, UniProt P30542); details: cAMP assay
T5 sequence (P30542 1-326): T1 sequence (P30542 1-326)

Nc1ncnc2[nH]cnc12 [Compound 26, adenine]
% inhibition at 30 µM A1AR [1]: No significant displacement | inhibition at 30 µM [1]: 19 ± 8% | % inhibition at 30 µM A2AAR [2]: No significant displacement | inhibition at 30 µM [2]: 19 ± 8% | % inhibition at 30 µM A3AR [3]: No significant displacement

Cn1c(=O)[nH]c2nc[nH]c2c1=O [Compound 28, 1-methylxanthine]
inhibition at 30 µM [2]: 40 ± 8% | inhibition at 30 µM [3]: 36 ± 6%

Nc1cccc2c1ncn2[C@@H]1O[C@H](CO)[C@@H](O)[C@H]1O [Compound 7, 1,3-dideazaadenosine]
functional activity at A3AR ([4]; cAMP assay, 10 µM for compound 11): strongly selective agonist | inhibition at 10 µM [1]: 15 ± 2% | % inhibition at 10 µM A2AAR ([2]; radioligand displacement at 10 µM, mean ± standard error, three experiments): completely lost affinity | inhibition at 10 µM [2]: 5 ± 2%

Nc1ncn([C@@H]2O[C@H](CO)[C@@H](O)[C@H]2O)c(=O)n1 [Compound 12, 5-azacytidine]
Emax ([4]; CHO, read-out: maximal efficacy A3AR): ~30% | inhibition at 10 µM [2]: 34 ± 2%

Nc1nc(=O)[nH]c2c1ncn2[C@@H]1O[C@H](CO)[C@@H](O)[C@H]1O [Compound 9, isoguanosine]
EC50 [5]: 3100 nM | functional activity at A2BAR [5]: full agonists

Nc1nc[nH]c(=O)c1Cl [Compound 29, 6-amino-5-chloropyrimidin-4(3H)-one]
% inhibition at 30 µM A1AR [1]: No significant displacement | inhibition at 30 µM [1]: 11 ± 3% | % inhibition at 30 µM A2AAR [2]: No significant displacement | % inhibition at 30 µM A3AR [3]: No significant displacement | inhibition at 30 µM [3]: 19 ± 5%

Cc1cn([C@@H]2O[C@H](CO)[C@@H](O)[C@H]2O)c(=O)nc1N [Compound 13, 5-methylcytidine]
inhibition at 10 µM [1]: 10 ± 3% | inhibition at 10 µM [2]: 13 ± 9%

Nc1ccnc2c1ncn2[C@@H]1O[C@H](CO)[C@@H](O)[C@H]1O [Compound 5, 1-deazaadenosine]
EC50 [5]: 1500 nM | functional activity at A2BAR [5]: full agonists

Nc1nccc2c1ncn2[C@@H]1O[C@H](CO)[C@@H](O)[C@H]1O [Compound 6, 3-deazaadenosine]
functional activity at A2BAR [5]: inactive | functional activity at A1AR [6]: no influence on cAMP levels was detected; also recorded: lost the ability to activate the receptor
